For this test, the target named is T1, small-conductance Ca2+-activated K+ channels (SK channels, subtype 2) (Homo sapiens, UniProt Q9H2S1).
T1 construct: expressed in transfected cells; host or cells: HEK293
Description: whole-cell patch-clamp of ionic current through SK2 channels in HEK293 cells (SC100). Format: cell-based. Conditions: whole-cell patch-clamp, HEK293 cells expressing SK2 channels; concentration that increases the basal current by 100%. The method in brief: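 SC100, the concentration doubling basal current (a 100% increase), was taken from SK2 currents recorded by whole-cell patch-clamp in SK2-expressing HEK293 cells.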
(Patch clamp records ionic current or voltage across a cell membrane.)

On to `Cn1cnc(COc2cc(NC3CCC(F)(F)CC3)nc(-c3nc(CF)cs3)n2)n1` [NSSy5624, N-(4,4-difluorocyclohexyl)-2-(4-(fluoromethyl)thiazol-2-yl)-6-((1-methyl-1H-1,2,4-triazol-3-yl)methoxy)pyrimidin-4-amine], for which the “SC100 (μM)” value is reported as “+ (+ means >1 uM)”.
Then `Cc1csc(-c2nc(NC3CCC(F)(F)CC3)cc(OCc3cnnn3C)n2)n1` [NSSy5625], with “+++ (+++ means <200 nM)”; and `Cc1csc(-c2nc(NC3CCC(F)(F)CC3)cc(OC3CN(C(=O)C(C)C)C3)n2)n1` [NSSy5629], with “+++ (+++ means <200 nM)”; and `Cc1ccn(-c2nc(NC3CCC(F)(F)CC3)cc(N3CC4(COC4)C3)n2)n1` [NSSy5631], with “++ (++ means 200 nM-1000 nM)”.
As for `COC(=O)NCc1cc(NC2CCC(F)(F)CC2)nc(-n2ccc(C)n2)c1` [NSSy5635], the “SC100 (μM)” value is recorded as “++ (++ means 200 nM-1000 nM)”.
As to `Cc1ccn(-c2cc(CNC(=O)C(C)C)cc(NC3CCC(F)(F)CC3)n2)n1` [NSSy5637], the “SC100 (μM)” value is reported as “++ (++ means 200 nM-1000 nM)”.
Regarding `Cc1ccn(-c2cc(NC3CCC(F)(F)CC3)cc(OCc3ncnn3C)n2)n1` [NSSy5638, N-(4,4-difluorocyclohexyl)-2-((1-methyl-1H-1,2,4-triazol-5-yl)methoxy)-6-(3-methyl-1H-pyrazol-1-yl)pyridin-4-amine], the “SC100 (μM)” value is reported as “++ (++ means 200 nM-1000 nM)”.
Regarding `CC(=O)NCc1cc(NC2CCC(F)(F)CC2)nc(-c2nc(C)cs2)c1` [NSSy5640, N-((2-((4,4-difluorocyclohexyl)amino)-6-(4-methylthiazol-2-yl)pyridin-4-yl)methyl)acetamide], the “SC100 (μM)” value was “++ (++ means 200 nM-1000 nM)”.
For the compound `Cc1ccn(-c2cc(OCc3ncn(C)n3)cc(NC3CCC(F)(F)CC3)n2)n1` [NSSy5641], the “SC100 (μM)” value was “++ (++ means 200 nM-1000 nM)”.
The value for `Cc1ccn(-c2cc(OCc3cnnn3C)cc(NC3CCC(F)(F)CC3)n2)n1` [NSSy5643] was “++ (++ means 200 nM-1000 nM)”.
Turning to `CC(=O)NCc1cc(NC2CCC(F)(F)CC2)nc(-c2nc(CF)cs2)c1` [NSSy5644, N-((2-((4,4-difluorocyclohexyl)amino)-6-(4-(fluoromethyl)thiazol-2-yl)pyridin-4-yl)methyl) acetamide], the “SC100 (μM)” value is on record as “++ (++ means 200 nM-1000 nM)”.
With `Cc1cc(C)n(-c2cc(Cc3ncco3)cc(NC3CCC(F)(F)CC3)n2)n1` [NSSy5645, N-(4,4-difluorocyclohexyl)-6-(3,5-dimethyl-1H-pyrazol-1-yl)-4-(oxazol-2-ylmethyl)pyridin-2-amine], the “SC100 (μM)” value is given as “++ (++ means 200 nM-1000 nM)”.
`Cc1csc(-c2cc(N3CCOCC3)cc(NC3CCC(F)(F)CC3)n2)n1` [NSSy5646]: the “SC100 (μM)” value is on record as “++ (++ means 200 nM-1000 nM)”.
As for `Cc1ccn(-c2nc(NC3CCC(F)(F)CC3)cc(OC3CC(F)C3)n2)n1` (stereo not drawn) [NSSy5647, N-(4,4-difluorocyclohexyl)-6-(3-fluorocyclobutoxy)-2-(3-methyl-1H-pyrazol-1-yl)pyrimidin-4-amine], the “SC100 (μM)” value is “++ (++ means 200 nM-1000 nM)”.
In the case of `Cc1ccn(-c2nc(NC3CCC(F)(F)CC3)cc(OC3CNC3)n2)n1` [NSSy5648, 6-(azetidin-3-yloxy)-N-(4,4-difluorocyclohexyl)-2-(3-methyl-1H-pyrazol-1-yl)pyrimidin-4-amine], the “SC100 (μM)” value is given as “+ (+ means >1 uM)”.
With `Cc1csc(-c2nc(NC3CCC(F)(F)CC3)cc(OCc3nnc(C)o3)n2)n1` [NSSy5651], the “SC100 (μM)” value is “++ (++ means 200 nM-1000 nM)”.
As for `COC(=O)NCc1cc(NC2CCC(F)(F)CC2)nc(-n2ccc(CF)n2)c1` [NSSy5653, methyl ((2-((4,4-difluorocyclohexyl)amino)-6-(3-(fluoromethyl)-1H-pyrazol-1-yl)pyridin-4-yl)methyl)carbamate], the “SC100 (μM)” value is “++ (++ means 200 nM-1000 nM)”.
As to `Cc1csc(-c2cc(N3CCOCC3)cc(NC3CC=CCC3)n2)n1` (stereo not drawn) [NSSy5655, N-(cyclohex-3-en-1-yl)-6-(4-methylthiazol-2-yl)-4-morpholinopyridin-2-amine], the “SC100 (μM)” value is “++ (++ means 200 nM-1000 nM)”.

Values taken from patent publication US10774064B2 (Cadent Therapeutics, Inc., priority 2016, dated 2020).
